Read-outs that look alike come from different tables or passages of the source.
What was measured:
[1] = test system: ARE gene family (AKR1B10, AKR1C1, AKR1C2, CYP1B1, FTH1P, FTL, G6PD, GCLM, NQO2, SLC7A11, TXNRD1, UGT1A1, UGT1A9, YWHAZ, CD36, CYP1A1, GCLC, HMOX1, NQO1, PSME2 …)
[2] = test system: genes specific for sensitization (BRAK, CTSS, DAPK2, FABP4, HSP27, IL18, HSP90, IL1R2, TPSAB1, CXCR1, DEFB1, DHFR, EHF, IVL, KRT4, MELANA, NGAL, PDZK1IP1, PI3 …); assay: Expression of the other (non-ARE) sensitization-specific genes in EPISKIN reconstructed skin (quantitative RT-PCR); type: cell-based, human; details: for BRAK expression / CTSS expression / CXCR1 expression / DAPK2 expression / DEFB1 expression / DHFR expression / EHF expression / FABP4 expression / HSP27 expression / HSP90 expression / IL18 expression / IVL expression / KRT4 expression / MELANA expression / NGAL expression / P13 expression / PDZK1iP1 expression / SERPINB3 expression: compared to the control;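 for CTSS NUMBER OF GENES grade: grade scored against expression in the control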;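 for CXCR1 NUMBER OF GENES grade: grade scored against expression in the control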;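 for DAPK2 NUMBER OF GENES grade: grade scored against expression in the control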

From the text for EPISKIN model: “Sensitizing power” means the ability of a given compound to induce a sensitization reaction according to the concentration of said compound. Sensitizing power is dependent on the quantity of substance necessary to induce sensitization. Thus, the lower the sensitizing quantity necessary to induce a sensitizing response, the stronger the sensitizer is, and vice versa, the higher the sensitizing quantity necessary to induce a sensitizing response, the weaker the sensitizer is.
Thus, steps 1) and 2) will be done for each of the dilutions.

In the case of `C=CCc1ccc(O)c(OC)c1` [Eugenol], the “ARE >1.3 (number of genes)” value [1] was 10, the “TOTAL ARE (number of genes)” value [1] was 10 and the AHR expression ([1]; human, 6 h, 10 %) was 0.8. For the same compound, the AKR1B10 expression ([1]; human, 6 h, 10 %) was 0.9, the AKR1C1 expression ([1]; human, 6 h, 10 %) was 1.3 and the AKR1C2 expression ([1]; human, 6 h, 10 %) was 1.1. The “ARE >1.3 (number of genes)” value ([1]; human, 6 h, 10 %) was 3, the CD36 expression ([1]; human, 6 h, 10 %) was 1.7 and the CYP1A1 expression ([1]; human, 6 h, 10 %) was 0.5. It also gave a CYP1B1 expression ([1]; human, 6 h, 10 %) of 0.6, an FTH1P expression ([1]; human, 6 h, 10 %) of 1.1 and an FTL expression ([1]; human, 6 h, 10 %) of 1.1. It also gave a GCLC expression ([1]; human, 6 h, 10 %) of 1.3, a GCLM expression ([1]; human, 6 h, 10 %) of 1.1 and an HMOX1 expression ([1]; human, 6 h, 10 %) of 1.3. It also gave an NQO1 expression ([1]; human, 6 h, 10 %) of 1.1, an NQO2 expression ([1]; human, 6 h, 10 %) of 1.0 and an S100A8 expression ([1]; human, 6 h, 10 %) of 1.0. For the same compound, the SLC7A11 expression ([1]; human, 6 h, 10 %) was 1.2, the “TOTAL ARE (number of genes)” value ([1]; human, 6 h, 10 %) was 3 and the TXNRD1 expression ([1]; human, 6 h, 10 %) was 1.1. For the same compound, the UGT1A1 expression ([1]; human, 6 h, 10 %) was 1.0, the UGT1A9 expression ([1]; human, 6 h, 10 %) was 0.7 and the AHR expression ([1]; human, 6 h, 50 %) was 1.3. For the same compound, the AKR1B10 expression ([1]; human, 6 h, 50 %) was 1.0, the AKR1C1 expression ([1]; human, 6 h, 50 %) was 0.7 and the AKR1C2 expression ([1]; human, 6 h, 50 %) was 0.7. The CD36 expression ([1]; human, 6 h, 50 %) was 2.3, the CYP1A1 expression ([1]; human, 6 h, 50 %) was 2.3 and the CYP1B1 expression ([1]; human, 6 h, 50 %) was 0.9. It also gave an FTH1P expression ([1]; human, 6 h, 50 %) of 2.3, an FTL expression ([1]; human, 6 h, 50 %) of 4.2 and a GCLC expression ([1]; human, 6 h, 50 %) of 3.2. It also gave a GCLM expression ([1]; human, 6 h, 50 %) of 1.1, an HMOX1 expression ([1]; human, 6 h, 50 %) of 2.4 and an NQO1 expression ([1]; human, 6 h, 50 %) of 0.7. It also gave an NQO2 expression ([1]; human, 6 h, 50 %) of 1.3, an S100A8 expression ([1]; human, 6 h, 50 %) of 1.9 and an SLC7A11 expression ([1]; human, 6 h, 50 %) of 2.6. It also gave a TXNRD1 expression ([1]; human, 6 h, 50 %) of 3.0, a UGT1A1 expression ([1]; human, 6 h, 50 %) of 0.5 and a UGT1A9 expression ([1]; human, 6 h, 50 %) of 25.0. For the same compound, the “BRAK NUMBER OF GENES grade” value ([2]; 10%) was 0 (if this expression is lower, the grade is 0), the “CTSS NUMBER OF GENES grade” value ([2]; 10%) was 0 (if this expression is lower, the grade is 0) and the “CXCR1 NUMBER OF GENES grade” value ([2]; 10%) was 0 (if this expression is lower, the grade is 0). The “DAPK2 NUMBER OF GENES grade” value ([2]; 10%) was 1 (If the expression is greater than 1.3 compared to the control, a grade of 11s given), the “DEFB1 NUMBER OF GENES grade” value ([2]; 10%) was 0 (if this expression is lower, the grade is 0) and the “DHFR NUMBER OF GENES grade” value ([2]; 10%) was 0 (if this expression is lower, the grade is 0). The “EHF NUMBER OF GENES grade” value ([2]; 10%) was 1 (If the expression is greater than 1.3 compared to the control, a grade of 11s given), the “FABP4 NUMBER OF GENES grade” value ([2]; 10%) was 0 (if this expression is lower, the grade is 0) and the “HSP27 NUMBER OF GENES grade” value ([2]; 10%) was 0 (if this expression is lower, the grade is 0). The “HSP90 NUMBER OF GENES grade” value ([2]; 10%) was 0 (if this expression is lower, the grade is 0), the “IL18 NUMBER OF GENES grade” value ([2]; 10%) was 0 (if this expression is lower, the grade is 0) and the “IVL NUMBER OF GENES grade” value ([2]; 10%) was 0 (if this expression is lower, the grade is 0). The “KRT4 NUMBER OF GENES grade” value ([2]; 10%) was 0 (if this expression is lower, the grade is 0), the “MELANA NUMBER OF GENES grade” value ([2]; 10%) was 1 (If the expression is greater than 1.3 compared to the control, a grade of 11s given) and the “NGAL NUMBER OF GENES grade” value ([2]; 10%) was 0 (if this expression is lower, the grade is 0). The “P13 NUMBER OF GENES grade” value ([2]; 10%) was 0 (if this expression is lower, the grade is 0), the “PDZK1iP1 NUMBER OF GENES grade” value ([2]; 10%) was 0 (if this expression is lower, the grade is 0) and the “SENS >1.3 (number of genes)” value ([2]; 10%) was 4. The “SERPINB3 NUMBER OF GENES grade” value ([2]; 10%) was 0 (if this expression is lower, the grade is 0), the “TOTAL SENS (number of genes)” value ([2]; 10%) was 4 and the BRAK expression ([2]; 10%) was 0.7. For the same compound, the CTSS expression ([2]; 10%) was 1.0, the CXCR1 expression ([2]; 10%) was 0.8 and the DAPK2 expression ([2]; 10%) was 1.3. It also gave a DEFB1 expression ([2]; 10%) of 1.1, a DHFR expression ([2]; 10%) of 0.8 and an EHF expression ([2]; 10%) of 1.3. It also gave an FABP4 expression ([2]; 10%) of 0.6, an HSP27 expression ([2]; 10%) of 1.1 and an HSP90 expression ([2]; 10%) of 1.1. For the same compound, the IL18 expression ([2]; 10%) was 1.1, the IVL expression ([2]; 10%) was 0.9 and the KRT4 expression ([2]; 10%) was 0.8. It also gave an MELANA expression ([2]; 10%) of 1.9, an NGAL expression ([2]; 10%) of 0.7 and a P13 expression ([2]; 10%) of 0.9. The PDZK1iP1 expression ([2]; 10%) was 0.9, the SERPINB3 expression ([2]; 10%) was 1.2 and the “BRAK NUMBER OF GENES grade” value ([2]; 50%) was 0 (if this expression is lower, the grade is 0). The “CTSS NUMBER OF GENES grade” value ([2]; 50%) was 0 (if this expression is lower, the grade is 0), the “CXCR1 NUMBER OF GENES grade” value ([2]; 50%) was 1 (If the expression is greater than 1.3 compared to the control, a grade of 11s given) and the “DAPK2 NUMBER OF GENES grade” value ([2]; 50%) was 1 (If the expression is greater than 1.3 compared to the control, a grade of 11s given). The “DEFB1 NUMBER OF GENES grade” value ([2]; 50%) was 1 (If the expression is greater than 1.3 compared to the control, a grade of 11s given), the “DHFR NUMBER OF GENES grade” value ([2]; 50%) was 0 (if this expression is lower, the grade is 0) and the “EHF NUMBER OF GENES grade” value ([2]; 50%) was 0 (if this expression is lower, the grade is 0). For the same compound, the “FABP4 NUMBER OF GENES grade” value ([2]; 50%) was 1 (If the expression is greater than 1.3 compared to the control, a grade of 11s given), the “HSP27 NUMBER OF GENES grade” value ([2]; 50%) was 1 (If the expression is greater than 1.3 compared to the control, a grade of 11s given) and the “HSP90 NUMBER OF GENES grade” value ([2]; 50%) was 1 (If the expression is greater than 1.3 compared to the control, a grade of 11s given). The “IL18 NUMBER OF GENES grade” value ([2]; 50%) was 0 (if this expression is lower, the grade is 0), the “IVL NUMBER OF GENES grade” value ([2]; 50%) was 1 (If the expression is greater than 1.3 compared to the control, a grade of 11s given) and the “KRT4 NUMBER OF GENES grade” value ([2]; 50%) was 1 (If the expression is greater than 1.3 compared to the control, a grade of 11s given). The “MELANA NUMBER OF GENES grade” value ([2]; 50%) was 0 (if this expression is lower, the grade is 0), the “NGAL NUMBER OF GENES grade” value ([2]; 50%) was 1 (If the expression is greater than 1.3 compared to the control, a grade of 11s given) and the “P13 NUMBER OF GENES grade” value ([2]; 50%) was 1 (If the expression is greater than 1.3 compared to the control, a grade of 11s given). For the same compound, the “PDZK1iP1 NUMBER OF GENES grade” value ([2]; 50%) was 1 (If the expression is greater than 1.3 compared to the control, a grade of 11s given), the “SENS >1.3 (number of genes)” value ([2]; 50%) was 15 and the “SERPINB3 NUMBER OF GENES grade” value ([2]; 50%) was 1 (If the expression is greater than 1.3 compared to the control, a grade of 11s given). For the same compound, the “TOTAL SENS (number of genes)” value ([2]; 50%) was 15, the BRAK expression ([2]; 50%) was 0.4 and the CTSS expression ([2]; 50%) was 0.1. The CXCR1 expression ([2]; 50%) was 2.2, the DAPK2 expression ([2]; 50%) was 1.5 and the DEFB1 expression ([2]; 50%) was 3.0. It also gave a DHFR expression ([2]; 50%) of 0.6, an EHF expression ([2]; 50%) of 1.2 and an FABP4 expression ([2]; 50%) of 1.4. It also gave an HSP27 expression ([2]; 50%) of 5.4, an HSP90 expression ([2]; 50%) of 9.1 and an IL18 expression ([2]; 50%) of 0.7. It also gave an IVL expression ([2]; 50%) of 2.6, a KRT4 expression ([2]; 50%) of 4.6 and an MELANA expression ([2]; 50%) of 1.0. The NGAL expression ([2]; 50%) was 1.3, the P13 expression ([2]; 50%) was 1.4 and the PDZK1iP1 expression ([2]; 50%) was 1.7. The SERPINB3 expression ([2]; 50%) was 1.4 and the “sensitizing power (class)” value (EPISKIN model) was “WEAK”.

Reference: patent US9255295B2, “Method for evaluating the sensitizing potential of a test compound” (IMMUNOSEARCH, priority 2010, dated 2016)
